Test results reported in publication PMC9926489, “Chemical Optimization of Selective Pseudomonas aeruginosa LasB Elastase Inhibitors and Their Impact on LasB-Mediated Activation of IL-1β in Cellular and Animal Infection Models” (ACS Infectious Diseases, 2023).

How the values were obtained:
Type in all cases: biochemical
[1] = target: T1, human neutrophil elastase (HNE) (Homo sapiens, UniProt P08246); assay: HNE selectivity assay
T1 construct: purchased Enzo Life Sciences
T1 sequence (P08246 30-267): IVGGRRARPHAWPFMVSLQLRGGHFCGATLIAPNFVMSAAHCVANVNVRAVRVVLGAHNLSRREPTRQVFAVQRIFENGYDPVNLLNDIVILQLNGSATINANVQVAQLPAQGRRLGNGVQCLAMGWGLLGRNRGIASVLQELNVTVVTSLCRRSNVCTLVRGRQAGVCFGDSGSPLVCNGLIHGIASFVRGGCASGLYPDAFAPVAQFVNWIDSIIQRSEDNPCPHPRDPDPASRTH
Method: (§1) Selectivity of compound inhibition was evaluated against other proteases at concentrations between 0.4 and 200 μM. Activity against rabbit angiotensin-converting enzyme (ACE, Sigma) was assessed using 10 μM fluorogenic substrate Abz-Phe-Arg-Lys(Dnp)-P (Enzo Life Sciences) in 100 mM Tris-HCl pH 7, 50 mM NaCl, 10 μM Zn SO4. Activity against human matrix metalloproteases (MMP)-2 and MMP-9 was assessed in 50 mM HEPES pH 7.5, 10 mM CaCl2, 0.01% Triton X-100 using 4 μM fluorogenic substrate Mca-Pro-Leu-Gly-Leu-Dpa-Ala-Arg-NH2 (Enzo Life Sciences). Activity against MMP-1 and MMP-13 was assessed in 25 mM HEPES pH 7.5, 100 mM NaCl, 100 mM CaCl2, 0.0005% Brij using 7.5 μM fluorogenic substrate Mca-Lys-Pro-Leu-Gly-Leu-Dpa-Ala-Arg-NH2 (Sigma) for MMP-1 and 1.25 μM fluorogenic substrate Mca-Pro-Cha-Gly-Nva-His-Ala-Dpa-NH2 (Millipore) for MMP-13. Activity against human neutrophil elastase (HNE, Enzo Life Sciences) was assessed in 100 mM HEPES pH 7.5, 500 mM NaCl, 0.01% of Triton X-100 using 100 μM fluorogenic substrate MeOSuc-AAPV-AMC (Enzo Life Sciences).

[2] = target: T2, purified LasB (Pseudomonas aeruginosa, UniProt P14756); assay: LasB inhibition, fluorimetric Abz-AGLA-Nba hydrolysis assay with purified LasB
T2 construct: The mature LasB protein is a 33 kDa metalloprotease, which is secreted from P. aeruginosa; host or cells: P. aeruginosa PAO1 (native secretion, culture supernatant)
Text: This was chosen as the starting point for a medicinal chemistry-driven lead optimization program aiming to improve potency and solubility whilst retaining selectivity against host metalloenzymes. All synthesized compounds were initially assessed in a fluorimetric assay measuring hydrolysis of a fluorogenic substrate Abz-Ala-Gly-Leu-Ala-4-nitrobenzylamide (Abz-AGLA-Nba) by purified LasB and IC50 values determined (Tables 1 and 2). Inhibition of elastin hydrolytic activity was confirmed using an orthogonal assay measuring hydrolysis of Elastin Congo Red (ECR) complex by LasB prepared directly from a P. aeruginosa culture supernatant (Tables 1 and 2). […] Aqueous solubility was determined for most compounds (Tables 1 and 2).
Native LasB protein was purified from culture supernatants of P. aeruginosa strain PAO1 (Charles River Laboratories, U.K.). Briefly, the sample was concentrated by ultrafiltration and the protein was purified by chromatography using an anion exchange (pH 8.5) step followed by gel filtration. This procedure yielded an enzyme preparation (0.8 mg/mL) of >98% purity. The enzyme was stored at −80 °C.
LasB inhibition assays were performed using purified LasB enzyme (1 ng/well) for compound screening or using culture supernatants (prepared as described in the ECR assay) for testing LasB variants. Hydrolysis of the fluorogenic peptide substrate 2-aminobenzoyl-Ala-Gly-Leu-Ala-4-nitrobenzylamide (Abz-AGLA-Nba; Peptide International) in 50 mM Tris-HCl (pH 7.4), supplemented with 2.5 mM CaCl2 was followed using an Envision microplate reader (PerkinElmer) at 315 nm excitation and 430 nm emission. For screening of lead compounds, assays were performed in the presence of 0.01% Triton X-100 with a range of inhibitor concentrations from 0.003 to 3.2 μM. IC50 values were determined from Hill plots using Dotmatics Studies ELN software. For the mechanism of inhibition studies, hydrolysis rates were measured in the presence of variable concentrations of substrate and inhibitor, and the inhibition constant (Ki) was determined using Dixon plot analysis.[31]

[3] = target: T3, MMP-1 (Homo sapiens, UniProt P03956); assay: MMP-1 selectivity assay; conditions: human MMP-1
T3 sequence (P03956 100-469): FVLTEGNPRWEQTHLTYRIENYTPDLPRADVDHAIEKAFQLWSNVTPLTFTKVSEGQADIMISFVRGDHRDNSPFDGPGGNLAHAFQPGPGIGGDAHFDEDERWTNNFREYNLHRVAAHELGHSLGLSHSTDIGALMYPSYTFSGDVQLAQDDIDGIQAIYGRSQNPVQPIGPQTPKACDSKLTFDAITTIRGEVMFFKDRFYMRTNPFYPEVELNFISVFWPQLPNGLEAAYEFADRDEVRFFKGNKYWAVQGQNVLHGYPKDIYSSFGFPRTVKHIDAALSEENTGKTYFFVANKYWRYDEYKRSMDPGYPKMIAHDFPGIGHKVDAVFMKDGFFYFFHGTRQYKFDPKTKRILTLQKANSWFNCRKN
Method: as §1

T2 sequence (P14756 198-498): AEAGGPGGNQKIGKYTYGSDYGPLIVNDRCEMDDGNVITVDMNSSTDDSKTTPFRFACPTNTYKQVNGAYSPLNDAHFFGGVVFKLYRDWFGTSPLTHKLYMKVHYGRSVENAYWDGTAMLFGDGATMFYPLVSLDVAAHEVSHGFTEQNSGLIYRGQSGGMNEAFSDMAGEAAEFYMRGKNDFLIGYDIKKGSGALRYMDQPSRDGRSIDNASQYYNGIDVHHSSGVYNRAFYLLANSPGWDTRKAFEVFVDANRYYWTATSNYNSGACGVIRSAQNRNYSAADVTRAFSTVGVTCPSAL

SMILES | IC50 [1] | IC50 [2] | Ki [2] | IC50 [3]
COc1cc2sc(CNC(=O)C3(CC(=O)O)Cc4cc(F)c(F)cc4C3)nc2cc1OCCC[N+](C)(CCO)CCO [Compound 16] | > 200000 nM | 80 nM | 32 nM | > 100000 nM
COc1cc2sc(CNC(=O)C3(CC(=O)O)Cc4ccccc4C3)nc2cc1OCCC[N+](C)(C)C [Compound 12] | > 200000 nM | 130 nM | 35 nM | > 100000 nM
